Earlier results, collected in publication PMC6007947, “Sensitivity of pretargeted immunoPET using ^68Ga-peptide to detect colonic carcinoma liver metastases in a murine xenograft model: Comparison with ^18FDG PET-CT” (Oncotarget, 2018).

Conditions: stated in discussion
From the text: Pretargeting is one way to improve tumor uptake and tumor to normal organ uptake ratios by reducing the molecular size of the radioactive agent and using a non-radiolabeled bispecific antibody, such as TF2. TF2 is a humanized bispecific monoclonal antibody produced by the Dock-and-Lock® technology, containing two anti-CEA Fab fragments and another Fab fragment binding the HSG hapten component of the IMP288 hapten peptide. Compared to previously used bispecific antibodies with a single binding site for the tumor antigen and another for the hapten, this bivalency is expected to increase t ...

## DOTA-D-Tyr-D-Lys(HSG)-D-Glu-D-Lys(HSG)-NH2 [IMP288, DOTA-conjugated tetrapeptide containing two HSG hapten structures]
  Clearance from blood: within an hour
